The values below come from US20150313892A1, “PHARMACEUTICAL COMPOSITIONS FOR TREATING PAIN ASSOCIATED WITH DYSMENORRHEA” (priority 2014, published 2015).

Read-outs that look alike come from different tables or passages of the source. A value given as a limit tells only on which side of the number the result lay.

One series addresses μ-opioid (Homo sapiens, UniProt P35372). The following applies: read-out: Binding Constant Ki, μ-opioid; cited from earlier work.
A further series concerns the target NMDA. The following applies: cited from earlier work.
The target in another series is Sigma. The following applies: read-out: Binding Constant Ki, Sigma; cited from earlier work.
A further series concerns the target δ-opioid (Homo sapiens, UniProt P41143). The following applies: read-out: Binding Constant Ki, δ-opioid; cited from earlier work.
The next series has as its target κ-opioid (Homo sapiens, UniProt P41145). The following applies: read-out: Binding Constant Ki, κ-opioid; cited from earlier work.
The next series addresses NE reuptake (Homo sapiens, UniProt P23975).
The next series addresses 5-HT reuptake (Homo sapiens, UniProt P31645). The following applies: read-out: Binding Constant Ki, 5-HT, cited from earlier work.
For series [1] the following is noted: in vivo, po; cited from earlier work.
For series [2], the system named is patients with diabetic neuropathy and fibromyalgia. Put plainly: Pain relief in diabetic neuropathy and fibromyalgia patients. The following applies: 400 mg per day, alone.
Series [3] relates to transient K^+ channels in hippocampal neurons. The following applies: read-out: IC50, inhibition of transient K+ channels; cited from earlier work.
Series [4] relates to patients with postherpetic neuralgia or painful diabetic neuropathy. The following applies: oral, cited from earlier work.
Series [5] has as its system uptake of norepinephrine (NE), serotonin (5-HT) and dopamine. The following applies: cited from earlier work.
Series [6] deals with α or β adrenergic, muscarinic, histaminergic, and dopaminergic receptors. The following applies: cited from earlier work.
The test system of series [7] is persons undergoing third molar surgery. The following applies: cited from earlier work.
Series [8] relates to chronic sciatic nerve constriction injury. The following applies: chronic sciatic nerve constriction injury in rats; cited from earlier work.
Another series relates to postoperative patients. The following applies: intravenous; 30-mg/kg bolus, 10 mg/kg/h infusion for 48 hours; cited from earlier work.
For another series, the target named is α2δ. The following applies: read-out: α2δ Binding; cited from earlier work.
Series [9] has as its system cellular uptake of dopamine, noradrenaline, or serotonin. The following applies: cited from earlier work.
The conditions of series [10]: cited from earlier work.
Another series deals with patients, pain score. The following applies: cited from earlier work.
Series [11] relates to patients with neuropathic pain associated with diabetic peripheral neuropathy. The following applies: diabetic peripheral neuropathy trials; cited from earlier work.
For series [12], the system named is patients with fibromyalgia. The following applies: fibromyalgia trials, cited from earlier work.
Setting [13] is: read-out: Binding Constant Ki, NMDA.
Setting [14] is: read-out: Binding Constant Ki, NE; reuptake inhibition; cited from earlier work.
Setting [15] is: reuptake inhibition; read-out: Binding Constant Ki, NE; cited from earlier work.

κ-opioid, sequence (P41145 whole entry): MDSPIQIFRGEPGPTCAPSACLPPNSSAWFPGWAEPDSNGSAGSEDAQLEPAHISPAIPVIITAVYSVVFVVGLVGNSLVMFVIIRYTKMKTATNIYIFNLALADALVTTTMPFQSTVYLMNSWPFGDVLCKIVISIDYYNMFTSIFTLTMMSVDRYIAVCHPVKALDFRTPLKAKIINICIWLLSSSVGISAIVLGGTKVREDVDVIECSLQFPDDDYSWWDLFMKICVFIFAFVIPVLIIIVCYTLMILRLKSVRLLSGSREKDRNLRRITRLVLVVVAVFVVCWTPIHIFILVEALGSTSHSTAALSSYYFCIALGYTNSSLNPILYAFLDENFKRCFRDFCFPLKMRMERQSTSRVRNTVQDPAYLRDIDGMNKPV
δ-opioid, sequence (P41143 whole entry): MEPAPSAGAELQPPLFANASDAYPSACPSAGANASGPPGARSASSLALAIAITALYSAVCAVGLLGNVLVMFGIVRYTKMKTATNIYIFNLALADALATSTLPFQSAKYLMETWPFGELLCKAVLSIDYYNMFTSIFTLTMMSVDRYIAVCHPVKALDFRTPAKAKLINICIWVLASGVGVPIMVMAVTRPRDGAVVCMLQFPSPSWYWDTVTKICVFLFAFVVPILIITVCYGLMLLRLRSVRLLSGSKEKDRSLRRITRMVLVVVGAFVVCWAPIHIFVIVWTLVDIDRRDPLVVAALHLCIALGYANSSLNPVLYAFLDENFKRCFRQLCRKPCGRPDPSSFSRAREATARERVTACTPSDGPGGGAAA
NE reuptake, sequence (P23975 whole entry): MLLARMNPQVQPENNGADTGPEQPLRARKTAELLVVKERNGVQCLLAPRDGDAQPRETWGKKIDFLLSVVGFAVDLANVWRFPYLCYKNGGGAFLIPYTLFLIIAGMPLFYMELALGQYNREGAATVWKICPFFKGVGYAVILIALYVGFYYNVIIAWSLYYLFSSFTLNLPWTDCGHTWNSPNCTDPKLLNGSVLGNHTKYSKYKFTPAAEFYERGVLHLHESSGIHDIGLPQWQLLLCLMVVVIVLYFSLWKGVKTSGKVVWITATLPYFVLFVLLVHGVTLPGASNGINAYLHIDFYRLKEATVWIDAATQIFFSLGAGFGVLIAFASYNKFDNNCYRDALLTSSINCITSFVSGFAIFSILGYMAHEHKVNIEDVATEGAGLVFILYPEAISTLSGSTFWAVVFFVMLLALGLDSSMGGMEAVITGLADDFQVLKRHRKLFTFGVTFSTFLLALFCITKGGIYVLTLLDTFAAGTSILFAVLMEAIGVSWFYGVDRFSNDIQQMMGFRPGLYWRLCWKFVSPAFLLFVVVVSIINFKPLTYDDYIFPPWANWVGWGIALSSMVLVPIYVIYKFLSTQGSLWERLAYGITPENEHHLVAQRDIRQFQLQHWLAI
5-HT reuptake, sequence (P31645 whole entry): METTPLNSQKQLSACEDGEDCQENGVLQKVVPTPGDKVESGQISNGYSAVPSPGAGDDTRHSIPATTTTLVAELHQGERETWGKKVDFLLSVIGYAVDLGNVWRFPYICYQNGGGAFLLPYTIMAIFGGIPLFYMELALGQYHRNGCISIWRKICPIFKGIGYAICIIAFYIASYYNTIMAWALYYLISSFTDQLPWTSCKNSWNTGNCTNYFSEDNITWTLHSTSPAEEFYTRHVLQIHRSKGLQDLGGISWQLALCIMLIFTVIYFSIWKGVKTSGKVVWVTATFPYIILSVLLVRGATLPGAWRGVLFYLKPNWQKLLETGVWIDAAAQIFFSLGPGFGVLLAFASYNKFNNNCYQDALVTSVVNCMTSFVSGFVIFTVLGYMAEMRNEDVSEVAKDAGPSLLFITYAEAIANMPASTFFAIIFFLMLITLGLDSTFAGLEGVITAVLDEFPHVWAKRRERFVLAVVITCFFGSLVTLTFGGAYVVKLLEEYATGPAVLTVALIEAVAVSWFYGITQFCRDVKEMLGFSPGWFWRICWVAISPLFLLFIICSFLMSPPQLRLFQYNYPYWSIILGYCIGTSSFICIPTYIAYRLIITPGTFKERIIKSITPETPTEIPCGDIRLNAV
μ-opioid, sequence (P35372 whole entry): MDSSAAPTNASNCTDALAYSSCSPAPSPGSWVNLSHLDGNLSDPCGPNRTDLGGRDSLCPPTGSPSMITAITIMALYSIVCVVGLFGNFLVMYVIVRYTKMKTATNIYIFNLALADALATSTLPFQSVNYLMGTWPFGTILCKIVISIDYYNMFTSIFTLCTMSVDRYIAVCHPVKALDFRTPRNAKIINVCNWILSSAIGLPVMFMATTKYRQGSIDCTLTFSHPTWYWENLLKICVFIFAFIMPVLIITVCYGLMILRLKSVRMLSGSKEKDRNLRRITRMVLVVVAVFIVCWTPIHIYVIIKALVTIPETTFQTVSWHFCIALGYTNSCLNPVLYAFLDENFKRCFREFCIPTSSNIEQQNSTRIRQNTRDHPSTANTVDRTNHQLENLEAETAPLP

With `COc1ccc2c(c1)[C@@]13CCCC[C@H]1[C@@H](C2)N(C)CC3` [Dextromethorphan, (+)-3-methoxy-N-methylmorphinan], the Ki on μ-opioid was 1280 nM; on NMDA (setting [13]), 2910 nM; on Sigma, 365 nM; on δ-opioid, 11500 nM.
In the case of `C[C@]12N[C@H](Cc3ccccc31)c1ccccc12` [MK-801], the Ki on NMDA (high, read-out: Binding Constant Ki, NMDA (high)) is […]; at NMDA (low, read-out: Binding Constant Ki, NMDA (low)), […].
`CN1CC[C@@]23CCCC[C@@H]2[C@@H]1Cc1ccc(O)cc13` [Dextrorphan]: the Ki is 5950 nM on κ-opioid, 340 nM at NE reuptake (setting [14]), 401 nM on 5-HT reuptake (reuptake inhibition) and 34700 nM at δ-opioid.
Turning to `COc1cccc(C2(O)CCCCC2CN(C)C)c1` (racemic) [(±) Tramadol, (+/−)-trans(RR,SS)-2-[(di-methylamino)methyl]-1-(3-methoxyphenyl)cyclohexanol], the Ki is 42700 nM on κ-opioid, 785 nM on NE reuptake (setting [15]) and 57700 nM on δ-opioid. Further, the “duration of the analgesic effect” value in series [1] is recorded as “about 6 hours”. Besides, the reduction in pain in series [2] is 30-40%.
Turning to `CN(C)CCCN1c2ccccc2CCc2ccccc21` [imipramine], the IC50 in series [3] was approximately 6000 nM.
For the molecule `CN(C)CCC=C1c2ccccc2CCc2ccccc21` [amitriptyline], the “patients with good or moderate response” value is listed as “three-quarters” in [4] (painful diabetic neuropathy) and “about two-thirds” in series [4] (postherpetic neuralgia).
For O-desmethyltramadol [(±) M1], the Ki at κ-opioid is 242 nM; at NE reuptake (setting [15]) it was 1520 nM; at NMDA (setting [13]) it was more than 16000 nM.
Turning to `CN1CC[C@]23CCCC[C@H]2[C@H]1Cc1ccc(O)cc13` [Levorphanol], the Ki is 4.2 nM at κ-opioid, 1210 nM at NE reuptake (setting [14]), 86.3 nM on 5-HT reuptake and 3.61 nM at δ-opioid.
As for `CCN(CC)C(=O)C1(c2ccccc2)CC1CN` (centres unmarked) [Milnacipran], the Ki on NMDA (setting [13]) is 6300 nM. Further, the uptake of dopamine entry in [5] is “does not affect”. Moreover, the “affinity for α or β adrenergic, muscarinic, histaminergic, and dopaminergic receptors” value in series [6] is “no affinity”.
As to `N[C@@H](Cc1c[nH]c2ccccc12)C(=O)O` [tryptophan], the “effect on post-operative pain or on the consumption of other analgesics” value in series [7] is listed as “no effect”.
Consider `COc1ccc(C(CN(C)C)C2(O)CCCCC2)cc1` (racemic) [Venlafaxine, (R/S)-1-[2-(dimethylamino)-1-(4-methoxyphenyl)ethyl]cyclohexanol], for which, in [8], the “reversing chronic neuropathic pain secondary to thermal hyperalgesia; hyperalgesia of neuropathic pain” value is reported as “effective”.
In the case of `[Mg]` [magnesium], the “use of narcotics in postoperative patients” value in the series on postoperative patients was “reduced the use of narcotics”.
In the case of `NCC1(CC(=O)O)CCCCC1` [Gabapentin], on α2δ, the Ki was 59 nM. Besides, the “cellular uptake of dopamine, noradrenaline, or serotonin” value in series [9] is on record as “did not alter”. The Bioavailability entry is on record as “approximately 60%” in series [10] (900 mg/day given in 3 divided doses); approximately 47% in series [10] (1200 mg/day given in 3 divided doses); approximately 34% in series [10] (2400 mg/day given in 3 divided doses); approximately 33% in series [10] (3600 mg/day given in 3 divided doses); approximately 27% in series [10] (4800 mg/day given in 3 divided doses). Also, the “apparent volume of distribution” value in series [10] (after 150 mg intravenous administration, Mean±SD) is 58 ± 6 L. Also, the “increase in AUC and Cmax with food” value in series [10] (food effect) was 14%. The “bound to plasma protein” value in [10] (in vivo) was “Less than 3%”. Also, the metabolism in humans result in series [10] (in vivo) is given as “not appreciably metabolized”. In addition, the “steady-state predose (Cmin) concentration in cerebrospinal fluid, of corresponding plasma concentration” value in [10] (patients with epilepsy) is listed as “approximately 20%”. Moreover, the elimination half-life in series [10] (unaltered by dose or multiple dosing) is 5 to 7 h.
In the case of `CC(C)C[C@H](CN)CC(=O)O` [pregabalin], the “endpoint mean pain score (proportion with at least 50% reduction in pain score increased)” value with patients, pain score (8-week study, 50 and 100 mg three times a day vs placebo) is reported as “statistically significantly improved”; with patients, pain score (8-week study, 100 or 200 mg three times a day vs placebo, by creatinine clearance), “statistically significantly improved”; in the series on patients, pain score (13-week study, 75, 150, 300 mg twice daily vs placebo, creatinine clearance greater than 60 mL/min, all doses), “statistically significantly improved”; in the series on patients, pain score (100 and 200 mg three times a day), “statistically significantly improved”. Moreover, the “discontinuation due to dizziness” value in series [11] is 3%; in series [12], 6%. Moreover, the results for the “discontinuation due to somnolence” value in series [11] and in series [12] were 2% and 3%, respectively. Also, the “patients discontinued prematurely due to adverse reactions” value in series [11] is recorded as 9%; in [12] (150-600 mg/day) it was 19%. Also, in [11], the “withdrawal due to asthenia, confusion, and peripheral edema, each” value was “approximately 1%”. Besides, in [12], the “withdrawal due to fatigue, headache, balance disorder, and weight increased, each” value is “approximately 1%”.
